This assay addresses WDR5 (Homo sapiens, UniProt P61964). Description: Competition-based fluorescence polarization anisotropy assay. The note with it: binding to WDR5; displacement of FITC-labeled small molecule probe (analogous to Example J2 or HCH-25) or peptide probe FITC-AHx-SEEEIDVVSV; pH 6.0; Ki converted from IC50. How it is done: Compounds of the present invention were assessed for their ability to bind to WDr5 using a competition-based fluorescence polarization anisotropy assay, similar to the method previously described. […] Fluorescence polarization measurements were performed in 384-well plates (Greiner Bio One) using a Cytation 3 plate reader (BioTek). Fluorescein isothiocyanate (FITC)-labeled peptide probe ([…]) was purchased from GenScript USA Inc and used without further purification. […] The assay buffer contained 200 mM phosphate, 300 mM NaCl, and 0.5 mM TCEP and 0.1% Chaps at pH 6.0. […] This was converted into a binding dissociation constant (Ki value) according to the formula: […] Data shown in the table below represents a K; determined from this method for each Example, using either a fluorescently labeled small molecule probe analogous to Example J2 or Example HCH-25, or the peptide probe described above, in the assay.
Background: Polarisation of emitted light reports the rotation of a fluorescent probe.
On to `N#CC1(c2cc(NS(=O)(=O)c3cc(Br)cc4cccnc34)c(O)c(C(=O)O)c2)CCC1` [SN-6, 3-((6-bromoquinoline)-8-sulfonamido)-5-(1-cyanocyclobutyl)-2-hydroxybenzoic acid], for which the Ki – broadly, the dissociation constant of the complex between target and ligand, obtained from inhibition or displacement – was determined as 40 nM.
For `N#CC1(c2cc(NS(=O)(=O)c3cc(Br)ccc3O)c(O)c(C(=O)NCCN3CCOCC3)c2)CCC1` [Example J225, 3-((5-Bromo-2-hydroxyphenyl)sulfonamido)-5-(1-cyanocyclobutyl)-2-hydroxy-N-(2-morpholinoethyl)benzamide], the Ki was found to be 860 nM.
For `Cc1c(-c2ccccc2)cc(NS(=O)(=O)c2cc(Br)ccc2O)c(O)c1C(=O)O` [Example J184, 5-((5-Bromo-2-hydroxyphenyl)sulfonamido)-4-hydroxy-2-methyl-[1,1′-biphenyl]-3-carboxylic acid] the value was 1620 nM; for `CNC(=O)c1cc(C2(C#N)CCC2)cc(NS(=O)(=O)c2cc(Br)cc(C)c2O)c1O` [Example J212, 3-((5-Bromo-2-hydroxy-3-methylphenyl)sulfonamido)-5-(1-cyanocyclobutyl)-2-hydroxy-N-methylbenzamide], 260 nM.
For `N#CC1(c2ccc(O)c(NS(=O)(=O)c3cc(Br)ccc3O)c2)CCCCC1` [JDM-06-030C, 5-Bromo-N-(5-(1-cyanocyclohexyl)-2-hydroxyphenyl)-2-hydroxybenzenesulfonamide] the value was 230 nM; for `O=C(NCCO)c1cc(Cl)cc(NS(=O)(=O)c2cc(Br)ccc2O)c1O` [Example J16, 3-((5-Bromo-2-hydroxyphenyl)sulfonamido)-5-chloro-2-hydroxy-N-(2-hydroxyethyl)benzamide], 540 nM; for `O=C(NCCN1CCOCC1)c1cc(C2CC2)cc(NS(=O)(=O)c2cc(Br)ccc2O)c1F` [Example J143, 3-((5-Bromo-2-hydroxyphenyl)sulfonamido)-5-cyclopropyl-2-fluoro-N-(2-morpholinoethyl)benzamide], 2540 nM.
For `CS(=O)(=O)c1cc(Cl)cc(NS(=O)(=O)c2cc(Br)cc(Cl)c2O)c1O` [Example S16-2, 5-Bromo-3-chloro-N-(5-chloro-2-hydroxy-3-(methylsulfonyl)phenyl)-2-hydroxybenzenesulfonamide] the value was 20 nM.
In turn, `CS(=O)(=O)c1cc(C2CC2)cc(NS(=O)(=O)c2cc(Br)ccc2O)c1O` [Example S26, 5-Bromo-N-(5-cyclopropyl-2-hydroxy-3-(methylsulfonyl)phenyl)-2-hydroxybenzenesulfonamide] yielded an inhibition constant (Ki) of 240 nM.
In the case of `COCCNS(=O)(=O)c1cc(Cl)cc(NS(=O)(=O)c2cc(Br)cc(Cl)c2O)c1O` [Example S30, 5-bromo-3-chloro-N-(5-chloro-2-hydroxy-3-(N-(2-methoxyethyl)sulfamoyl)phenyl)-2-hydroxybenzenesulfonamide], the Ki was 3050 nM.
For `CNC(=O)c1cc(C2CC2)cc(NS(=O)(=O)c2cc(Br)cc(Cl)c2O)c1F` [Example J156, 3-((5-Bromo-3-chloro-2-hydroxyphenyl)sulfonamido)-5-cyclopropyl-2-fluoro-N-methylbenzamide] the value was 210 nM.
For `COC1CCN(C(=O)c2cc(C3(C#N)CCC3)cc(NS(=O)(=O)c3cc(Br)ccc3O)c2O)C1` (centres unmarked) [Example J221, 5-Bromo-N-(5-(1-cyanocyclobutyl)-2-hydroxy-3-(3-methoxypyrrolidine-1-carbonyl)phenyl)-2-hydroxybenzenesulfonamide] the value was 27800 nM; for `O=C(NCCN1CCOCC1)c1c(O)c(NS(=O)(=O)c2cc(Br)ccc2O)cc(C2CC2)c1F` [Example J125, 3-((5-Bromo-2-hydroxyphenyl)sulfonamido)-5-cyclopropyl-6-fluoro-2-hydroxy-N-(2-morpholinoethyl)benzamide], 1320 nM.
For `O=C(NC1COC1)c1c(O)c(NS(=O)(=O)c2cc(Br)cc(Cl)c2O)cc(C2CC2)c1F` [Example J149, 3-((5-Bromo-3-chloro-2-hydroxyphenyl)sulfonamido)-5-cyclopropyl-6-fluoro-2-hydroxy-N-(oxetan-3-yl)benzamide] the value was 710 nM.

The values are drawn from patent US12398097B2, “WDR5-MYC inhibitors” (Vanderbilt University, priority 2019, dated 2025).
